Reference: PMC9482650, “Quantitative fragmentomics allow affinity mapping of interactomes” (Nature Communications, 2022)
Where two headings read alike, the source gives them in different places. Ends that are not written are not given here.

Key:
[1] = target: T1, MAST2 PDZ (Homo sapiens, UniProt Q6P0Q8); test: biochemical; type: binding
T1 sequence (Q6P0Q8 1104-1192 limits assumed): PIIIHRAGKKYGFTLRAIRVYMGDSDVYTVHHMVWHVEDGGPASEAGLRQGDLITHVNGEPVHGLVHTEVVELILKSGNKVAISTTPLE

[2] = target: SNX27 PDZ (Homo sapiens, UniProt Q96L92); test: Holdup assay; type: binding
[3] = target: DLG1_1 PDZ (Homo sapiens, UniProt Q12959); test: Holdup assay; type: binding
[4] = target: SCRIB_1 PDZ (Homo sapiens, UniProt Q14160); test: Holdup assay; type: binding
[5] = target: T2, TX1BP3 PDZ (Homo sapiens, UniProt O14907); test: Holdup assay; type: binding
T2 sequence (O14907 15-112 limits assumed): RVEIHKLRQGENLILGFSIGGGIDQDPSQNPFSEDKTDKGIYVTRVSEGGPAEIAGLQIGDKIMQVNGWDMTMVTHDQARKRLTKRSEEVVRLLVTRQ

[6] = target: T3, SCRIB2 PDZ (Homo sapiens, UniProt Q14160); test: Holdup assay; type: binding
T3 sequence (Q14160 862-950 limits assumed): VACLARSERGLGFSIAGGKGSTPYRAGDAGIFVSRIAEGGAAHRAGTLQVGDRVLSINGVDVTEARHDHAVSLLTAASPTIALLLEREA

[7] = target: DLG1_2 PDZ (Homo sapiens, UniProt Q12959); test: Holdup assay; type: binding
[8] = target: Htra1; conditions: SPR; ref Murwantoko et al 2004; cited from earlier work
Source text: (§1) Supplement 41467_2022_33018_MOESM4_ESM.xlsx, sheet "reference DMI interactome" | column: Affinity (mM); pKd, measured in literature

[9] = target: Htra2; conditions: SPR; ref Murwantoko et al 2004; cited from earlier work
Source text: as §1

[10] = target: T4, SYNJ2BP PDZ (Homo sapiens, UniProt P57105); test: Holdup assay; type: binding
T4 sequence (P57105 13-100 limits assumed): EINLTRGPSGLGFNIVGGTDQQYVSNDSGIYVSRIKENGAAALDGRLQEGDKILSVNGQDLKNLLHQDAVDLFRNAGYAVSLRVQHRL

[11] = test system: HEK293T cells; test: Label-free MS proteome of stable cell lines expressing HPV16 E6 or E6ΔPBM; type: cell-based, human; conditions: protein level
In short: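 Confluent HEK293T lysates in HEPES-KOH pH 7.5, 1% Triton X-100 buffer, TCA-precipitated, reduced, alkylated, Lys-C then trypsin digested. nanoLC (90 min gradient) on LTQ-Orbitrap Elite, TOP20 CID data-dependent acquisition; SequestHT search of human SwissProt, 1% FDR. Label-free quantification by peptide XIC intensity, technical triplicates.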

[12] = holdup affinity of the PBM peptide of the named protein, sheet PBMcomplexome, lower sub-table
[13] = holdup affinity of the PBM peptide of the named protein, sheet PBMcomplexome, lower sub-table, 3.5 appears to be the floor for no detectable binding, read-out: affinity of PBM to SCRIB_1 (pKd) (converted)
[14] = holdup affinity of the PBM peptide of the named protein, sheet PBMcomplexome, lower sub-table, 3.5 appears to be the floor for no detectable binding, read-out: affinity of PBM to TX1BP3 (pKd) (converted)
[15] = holdup affinity of the PBM peptide of the named protein, sheet PBMcomplexome, lower sub-table, 3.5 appears to be the floor for no detectable binding, read-out: affinity of PBM to DLG1_2 (pKd) (converted)
[16] = PBM motif of the named protein vs DLG1_1 PDZ, read-out: pKd values – domain-motif, DLG1_1 (converted)
[17] = PBM motif of the named protein vs SCRIB_1 PDZ, read-out: pKd values – domain-motif, SCRIB_1 (converted)
[18] = PBM motif of the named protein vs TX1BP3 PDZ, read-out: pKd values – domain-motif, TX1BP3 (converted)
[19] = PBM motif of the named protein vs SCRIB_2 PDZ, read-out: pKd values – domain-motif, SCRIB_2 (converted)
[20] = PBM motif of the named protein vs DLG1_2 PDZ, read-out: pKd values – domain-motif, DLG1_2 (converted)

Chain of SCRIB_1 PDZ (Q14160 728-815 limits assumed): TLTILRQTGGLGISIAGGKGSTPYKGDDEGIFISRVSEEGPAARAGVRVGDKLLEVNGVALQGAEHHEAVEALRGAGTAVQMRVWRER

Compound	Kd [2, 12] [µM]	Kd [2] [µM]	Kd [3, 16] [µM]	Kd [4, 17] [µM]	Kd [5, 18] [µM]	Kd [6, 19] [µM]	Kd [7, 20] [µM]	also measured
CC(C)C[C@H](NC(=O)[C@H](CC(=O)O)NC(=O)[C@@H]1CCCN1C(=O)[C@@H](NC(=O)CNC(=O)[C@H](CCC(=O)O)NC(=O)[C@H](CO)NC(=O)[C@H](CO)NC(=O)[C@H](CC(N)=O)NC(=O)[C@H](CC(C)C)NC(=O)[C@@H](N)CC(N)=O)C(C)C)C(=O)N[C@@H](CC(C)C)C(=O)N[C@H](C(=O)O)C(C)C [SARS-CoV-E]								Kd [1]: 253 µM
DDENIRTSDV [PLEKHA2]	14.5							Kd ([3]; holdup affinity of the PBM peptide of the named protein, sheet PBMcomplexome, lower sub-table, 3.5 appears to be the floor for no detectable binding, read-out: affinity of PBM to DLG1_1 (pKd) (converted)): 158 µM; Kd [4, 13]: 178 µM; Kd [5, 14]: 17.8 µM; Kd ([6]; holdup affinity of the PBM peptide of the named protein, sheet PBMcomplexome, lower sub-table, 3.5 appears to be the floor for no detectable binding, read-out: affinity of PBM to SCRIB_2 (pKd) (converted)): 178 µM; Kd [7, 15]: 34.7 µM
DTKNYKQTSV [CRIPT]		4.68	44.7	13.2	3.98	24.5	8.51	
EKPIDSETKM [SLC1A3]	6.61							
EVVHTPETSV [SLC16A3]		7.08	135	8.32	145	33.1	50.1	
FHPLGADSQV [SLC2A1]		89.1		95.5	170		132	
KKKKGQYYFV [HtrA2-Opt]								pKd, measured in literature [8]: 8.42; pKd, measured in literature [9]: 7.7167
LDSQIQETSI [MAP4]		1.86	229	2.75	110	35.5	42.7	
PPRQRSETQV [HPV82E6]								Kd [10]: 13.7 µM
QGLAERISVL [PRKD2]	16.6							Kd [4, 13]: 170 µM; Kd [5, 14]: 41.7 µM; Kd [7, 15]: 214 µM
QSARYRDTEL [TJP2 (ZO2)]		20.4	209	34.7	17.4	126	170	
TBCD								Difference log2 E6/Ctrl ([11]; E6 cell line vs control): 0.5689; Ratio E6/Ctrl ([11]; E6 cell line vs control): 1.483; Difference log2 dPBM/E6 ([11]; dPBM cell line vs E6 cell line): -3.03; Ratio dPBM/E6 ([11]; dPBM cell line vs E6 cell line): 0.1225; Difference log2 dPBM/Ctrl ([11]; dPBM cell line vs control): -2.461; Ratio dPBM/Ctrl ([11]; dPBM cell line vs control): 0.1817
TSQESEDTYL [TBC1D10A]	5.37							Kd [4, 13]: 102 µM
